Experimental data: patent publication EP4603105A1, “PHARMACEUTICAL COMPOSITION CONTAINING CYCLIC COMPOUND HAVING SELECTIVE KRAS INHIBITORY EFFECT AGAINST HRAS AND NRAS” (CHUGAI SEIYAKU KABUSHIKI KAISHA, priority 2022, dated 2024)
*1 amine or outer side, *2 acyl side, *3 side chain or, on linkers, in order; H or OH if unused. Where a SMILES comes first, the peptide text is derived from it. Bridges are numbered along the chain shown (N, C = ends). [ ]: non-standard residue; d: D form. The star is where a group is joined. hPhe(3-Cl-4-CF3) = N[C@@H](CCc1ccc(C(F)(F)F)c(Cl)c1)C(=O)O; X43 = COCCCN([C@@H](Cc1ccc(C(F)(F)F)cc1)C(=O)[*:2])[*:1]; X29 = C#CCN([C@@H](Cc1ccc(C(F)(F)F)cc1)C(=O)[*:2])[*:1]; NPrPhe(4-CF3) = CCCN[C@@H](Cc1ccc(C(F)(F)F)cc1)C(=O)O; NMePhe(4-F) = CN[C@@H](Cc1ccc(F)cc1)C(=O)O; NMeGly(cPent) = CN[C@H](C(=O)O)C1CCCC1; Hyp = O=C(O)[C@@H]1C[C@@H](O)CN1; NMeD = CN[C@@H](CC(=O)O)C(=O)O; NMeL = CN[C@@H](CC(C)C)C(=O)O; hPip = O=C(O)[C@@H]1CCCCCN1; Morpholide = C1CN(*)CCO1; NMeA = CN[C@@H](C)C(=O)O; Ac5c = NC1(C(=O)O)CCCC1; Aze = O=C(O)[C@@H]1CCN1; Ac3c = NC1(C(=O)O)CC1; NEtG = CCNCC(=O)O; Sar = CNCC(=O)O

Experiments:
HRAS wild-type protein = HRAS wild-type protein (Homo sapiens, UniProt P01112); assay: Binding to HRAS by surface plasmon resonance (SPR), KD and KD ratio to KRAS
Chain of HRAS wild-type protein (P01112 whole entry): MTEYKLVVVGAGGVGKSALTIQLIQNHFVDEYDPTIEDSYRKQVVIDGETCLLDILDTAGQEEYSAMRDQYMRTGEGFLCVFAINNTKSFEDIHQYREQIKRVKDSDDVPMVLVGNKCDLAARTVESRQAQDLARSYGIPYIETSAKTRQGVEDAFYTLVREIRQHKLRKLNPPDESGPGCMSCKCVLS
Method in brief: (§1)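 Biotinylated GDP-bound RAS was captured at about 100–300 RU. Running buffer: HBS pH 7.4, 10 mM MgCl2, 10 µM GDP, 1 mM DTT, 0.01% Tween 20, 4% DMSO.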

[1] = test system: human lung cancer strain NCI-H441; format: cell-based
Method in brief: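 Step one: dispense the test compound in serial DMSO dilutions. Step three: add the reagent and measure […].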

[2] = target: GDP-bound NRAS wild-type protein (Homo sapiens, UniProt P01111); assay: Binding to NRAS by surface plasmon resonance (SPR), KD and KD ratio to KRAS
Chain of GDP-bound NRAS wild-type protein (P01111 whole entry): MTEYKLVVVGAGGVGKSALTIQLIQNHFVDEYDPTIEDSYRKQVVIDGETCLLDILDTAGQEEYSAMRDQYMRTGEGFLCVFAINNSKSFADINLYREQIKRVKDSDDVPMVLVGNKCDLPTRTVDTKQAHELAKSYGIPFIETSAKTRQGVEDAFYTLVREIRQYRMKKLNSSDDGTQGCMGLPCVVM
Method in brief: as §1

[3] = ratio of KD for HRAS wild-type protein to KD for KRAS
[4] = ratio of KD for GDP-bound NRAS wild-type protein to KD for KRAS
[5] = ratio of KD value for HRAS wild-type protein to KD value for KRAS (SPR)
[6] = ratio of KD value for GDP-bound NRAS wild-type protein to KD value for KRAS (SPR)
[7] = ratio of the KD value with respect to HRAS wild-type protein to the KD value with respect to KRAS
[8] = ratio of the KD value with respect to GDP-bound NRAS wild-type protein to the KD value with respect to KRAS

| Structure (SMILES) | HRAS /KRAS (HRAS wild-type protein; [3]) | IC50 [1] | NRAS /KRAS [2, 4] | HRAS /KRAS (HRAS wild-type protein; [5]) | NRAS /KRAS [2, 6] | HRAS /KRAS (HRAS wild-type protein; [7]) | NRAS /KRAS [2, 8] |
| --- | --- | --- | --- | --- | --- | --- | --- |
| CCC[C@H]1C(=O)N[C@@H]([C@@H](C)CC)C(=O)N(C2CC2)CC(=O)N(C)[C@H]2C/C=C\CCN(C2=O)[C@@H](Cc2ccc(C)cc2)C(=O)N(C)CC(=O)N[C@@H](CCc2ccc(C(F)(F)F)c(OC)c2)C(=O)N2C[C@H](OCC)C[C@H]2C(=O)N(C)C2(CCC2)C(=O)N(C)[C@@H](C2CCCC2)C(=O)N(C)[C@H](C(=O)N2CCCC2)CC(=O)N1C [PP3098] | A (a compound having 10 or more and less than 20 is denoted as A) | 4.7 nM | A (a compound having 10 or more and less than 20 is denoted as A) | – | – | – | – |
| CCCN1C(=O)CN(C)C(=O)CN(C)C(=O)[C@H]([C@@H](C)CC)NC(=O)[C@@H]2CCCCCN2C(=O)C[C@@H](C(=O)N2CCOCC2)N(C)C(=O)[C@H](C2CCCC2)N(C)C(=O)C2(CCCC2)NC(=O)[C@@H]2CCCN2C(=O)[C@H](CCc2ccc(C(F)(F)F)c(Cl)c2)NC(=O)CN(C)C(=O)[C@@H]1Cc1ccc(C(F)(F)F)cc1 [PP0247] ([hPip]I[Sar][Sar][NPrPhe(4-CF3)][Sar][hPhe(3-Cl-4-CF3)]P[Ac5c][NMeGly(cPent)][NMeD]-Morpholide; lactam N-11) | C (A compound having a KD ratio of 0.1 or more and less than 3 is denoted as C) | 41.3 nM | B (a compound having 3 or more and less than 10 is denoted as B) | – | – | – | – |
| CCO[C@@H]1C[C@H]2C(=O)NC3(CC(F)(F)C3)C(=O)N(C)[C@@H](C3CCCC3)C(=O)N(C)C(C(C)C)CC(=O)N(C)[C@@H](CC3CC3)C(=O)N[C@@H]([C@@H](C)CC)C(=O)N(C)CC(=O)N(C)[C@H]3C/C=C\CCN(C3=O)[C@@H](Cc3ccc(C(F)(F)F)cc3)C(=O)N(C)CC(=O)N[C@@H](CCc3cc(F)c(C(F)(F)F)c(F)c3)C(=O)N2C1 (stereo partly drawn) [PP1598] | – | 36.6 nM | – | A (a compound having 10 or more and less than 20 is denoted as A) | A (a compound having 10 or more and less than 20 is denoted as A) | – | – |
| CCCN1C(=O)CN(C)C(=O)CN(CC)C(=O)[C@H]([C@@H](C)CC)NC(=O)[C@H](CC(C)C)N(C)C(=O)C[C@@H](C(=O)N(C)C)NC(=O)[C@H](C2CCCC2)N(C)C(=O)C2(CCCC2)NC(=O)[C@@H]2C[C@@H](OCC)CN2C(=O)[C@H](CCc2ccc(C(F)(F)F)c(Cl)c2)NC(=O)CN(C)C(=O)[C@@H]1Cc1ccc(C(F)(F)F)cc1 [PP0371] ([NMeL]I[NEtG][Sar][NPrPhe(4-CF3)][Sar][hPhe(3-Cl-4-CF3)][Hyp](Et)[Ac5c][NMeGly(cPent)]D-NMe2; lactam N-11) | C (A compound having a KD ratio of 0.1 or more and less than 3 is denoted as C) | 30.9 nM | B (a compound having 3 or more and less than 10 is denoted as B) | – | – | – | – |
| C#CCN1C(=O)[C@@H]2CCN2C(=O)[C@H](C)N(C)C(=O)[C@H]([C@@H](C)CC)NC(=O)[C@H](CC(C)C)N(C)C(=O)C[C@@H](C(=O)N2CCOCC2)N(C)C(=O)[C@H](C2CCCC2)N(C)C(=O)C2(CCCC2)NC(=O)[C@@H]2CCCN2C(=O)[C@H](CCc2ccc(C(F)(F)F)c(Cl)c2)NC(=O)CN(C)C(=O)[C@@H]1Cc1ccc(C(F)(F)F)cc1 [PP0116] ([NMeL]I[NMeA][Aze][X29][Sar][hPhe(3-Cl-4-CF3)]P[Ac5c][NMeGly(cPent)][NMeD]-Morpholide; lactam N-11) | C (A compound having a KD ratio of 0.1 or more and less than 3 is denoted as C) | 6.8 nM | C (A compound having a KD ratio of 0.1 or more and less than 3 is denoted as C) | – | – | – | – |
| CC[C@H](C)[C@@H]1NC(=O)[C@@H]2CCC/C=C/c3ccc(cc3)C[C@@H](C(=O)N(C)CC(=O)N[C@@H](CCc3ccc(Cl)c(Cl)c3)C(=O)N3C[C@H](OC4CCCC4)C[C@H]3C(=O)NC3(CC(C)(C)C3)C(=O)N(C)[C@@H](C3CCCC3)C(=O)N(C)[C@H](C(=O)N3CCCC3)CC(=O)N2C)N2CC/C=C\C[C@@H](C2=O)N(C)C(=O)CN(C)C1=O [PP3054] | A (a compound having 10 or more and less than 20 is denoted as A) | 38.4 nM | A (a compound having 10 or more and less than 20 is denoted as A) | – | – | – | – |
| CCCN1C(=O)[C@@H]2CCN2C(=O)[C@H](C)N(C)C(=O)[C@H]([C@@H](C)CC)NC(=O)[C@H](CC(C)C)N(C)C(=O)C[C@@H](C(=O)N2CCOCC2)N(C)C(=O)[C@H](C2CCCC2)N(C)C(=O)C2(CC2)NC(=O)[C@@H]2CCCN2C(=O)[C@H](CCc2ccc(C(F)(F)F)c(Cl)c2)NC(=O)CN(C)C(=O)[C@@H]1Cc1ccc(C(F)(F)F)cc1 [PP0224] ([NMeL]I[NMeA][Aze][NPrPhe(4-CF3)][Sar][hPhe(3-Cl-4-CF3)]P[Ac3c][NMeGly(cPent)][NMeD]-Morpholide; lactam N-11) | B (a compound having 3 or more and less than 10 is denoted as B) | 2 nM | C (A compound having a KD ratio of 0.1 or more and less than 3 is denoted as C) | – | – | – | – |
| CCO[C@@H]1C[C@H]2C(=O)NC3(CC=CC3)C(=O)N(C)[C@@H](C3CCCC3)C(=O)N(CC)[C@H](C(=O)N3CCOCC3)CC(=O)N(C)[C@@H](CC(C)C)C(=O)N[C@@H]([C@@H](C)CC)C(=O)N(C)CC(=O)N(C)[C@H]3CCCCCN(C3=O)[C@@H](Cc3ccc(C(F)(F)F)cc3)C(=O)N(C)CC(=O)N[C@@H](CCc3cc(F)c(C(F)(F)F)c(F)c3)C(=O)N2C1 [PP0956] | A (a compound having 10 or more and less than 20 is denoted as A) | 690 nM | A (a compound having 10 or more and less than 20 is denoted as A) | – | – | – | – |
| CC[C@H](C)[C@@H]1NC(=O)[C@H](CC(C)C)N(C)C(=O)C[C@@H](C(=O)N2CCOCC2)N(C)C(=O)[C@H](C2CCCC2)N(C)C(=O)C2(CCCC2)NC(=O)[C@@H]2CCCN2C(=O)[C@H](CCc2ccc(C(F)(F)F)c(Cl)c2)NC(=O)CN(C)C(=O)[C@H](Cc2ccc(F)cc2)N(C)C(=O)CN(C)C(=O)CN(C)C1=O [PP0212] ([NMeL]I[Sar][Sar][NMePhe(4-F)][Sar][hPhe(3-Cl-4-CF3)]P[Ac5c][NMeGly(cPent)][NMeD]-Morpholide; lactam N-11) | C (A compound having a KD ratio of 0.1 or more and less than 3 is denoted as C) | 26.6 nM | C (A compound having a KD ratio of 0.1 or more and less than 3 is denoted as C) | – | – | – | – |
| CCCN1C(=O)[C@@H]2CCN2C(=O)[C@H](C)N(C)C(=O)[C@H]([C@@H](C)CC)NC(=O)[C@H](CC(C)C)N(C)C(=O)C[C@@H](C(=O)N2CCOCC2)N(C)C(=O)[C@H](C2CCCC2)N(C)C(=O)C2(CCCC2)NC(=O)[C@@H]2CCN2C(=O)[C@H](CCc2ccc(C(F)(F)F)c(Cl)c2)NC(=O)CN(C)C(=O)[C@@H]1Cc1ccc(C(F)(F)F)cc1 [PP0281] ([NMeL]I[NMeA][Aze][NPrPhe(4-CF3)][Sar][hPhe(3-Cl-4-CF3)][Aze][Ac5c][NMeGly(cPent)][NMeD]-Morpholide; lactam N-11) | C (A compound having a KD ratio of 0.1 or more and less than 3 is denoted as C) | 7.8 nM | C (A compound having a KD ratio of 0.1 or more and less than 3 is denoted as C) | – | – | – | – |
| C#CC[C@H]1C(=O)N[C@@H]([C@@H](C)CC)C(=O)N(C)CC(=O)N(C)[C@H]2CCCCN(C2=O)[C@@H](Cc2ccc(C(F)(F)F)cc2)C(=O)N(C)CC(=O)N[C@@H](CCc2cc(F)c(C(F)(F)F)c(F)c2)C(=O)N2C[C@H](OCC)C[C@H]2C(=O)NC2(CCC2)C(=O)N(C)[C@@H](C2CCCC2)C(=O)N(C)[C@H](C(=O)N(C)C)CC(=O)N1C [PP0696] | – | 3.3 nM | – | – | – | B (a compound having 3 or more and less than 10 is denoted as B) | B (a compound having 3 or more and less than 10 is denoted as B) |
| CC[C@H](C)[C@@H]1NC(=O)[C@H](CC(C)C)N(C)C(=O)C[C@@H](C(=O)N2CCOCC2)N(C)C(=O)[C@H](C2CCCC2)N(C)C(=O)C2(CCCC2)NC(=O)[C@@H]2CCCN2C(=O)[C@H](CCc2ccc(C(F)(F)F)c(Cl)c2)NC(=O)CN(C)C(=O)[C@H](Cc2ccc(C(F)(F)F)cc2)N(CCCOC)C(=O)[C@@H]2CCN2C(=O)[C@H](C)N(C)C1=O [PP0119] ([NMeL]I[NMeA][Aze][X43][Sar][hPhe(3-Cl-4-CF3)]P[Ac5c][NMeGly(cPent)][NMeD]-Morpholide; lactam N-11) | C (A compound having a KD ratio of 0.1 or more and less than 3 is denoted as C) | 1.6 nM | C (A compound having a KD ratio of 0.1 or more and less than 3 is denoted as C) | – | – | – | – |
| CCO[C@@H]1C[C@H]2C(=O)NC3(CC(C)(C)C3)C(=O)N(C)[C@@H](C3CCCC3)C(=O)N(C)[C@H](C(=O)N(C)C)CC(=O)N(C)[C@@H](CC3CC3)C(=O)N[C@@H]([C@@H](C)CC)C(=O)N(C)CC(=O)N(C)[C@H]3C/C=C\CCN(C3=O)[C@@H](Cc3ccc(C(F)(F)F)cc3)C(=O)N(C)CC(=O)N[C@@H](CCc3cc(F)c(Cl)c(F)c3)C(=O)N2C1 [PP1759] | – | 6.2 nM | – | A (a compound having 10 or more and less than 20 is denoted as A) | A (a compound having 10 or more and less than 20 is denoted as A) | – | – |
| C#CC[C@H]1C(=O)N[C@@H]([C@@H](C)CC)C(=O)N(C)CC(=O)N(C)[C@H]2C/C=C\CCN(C2=O)[C@@H](Cc2ccc(C(F)(F)F)cc2)C(=O)N(C)CC(=O)N[C@@H](CCc2ccc(C(F)(F)F)c(OC)c2)C(=O)N2C[C@@H](C)C[C@H]2C(=O)NC2(CC(C)(C)C2)C(=O)N(C)[C@@H](C2CCCC2)C(=O)N(C)[C@H](C(=O)N(C)CC)CC(=O)N1C [PP2055] | – | 16.1 nM | – | – | – | B (a compound having 3 or more and less than 10 is denoted as B) | A (a compound having 10 or more and less than 20 is denoted as A) |
